From patent publication EP0942896B1, “SUBSTITUTED PHENOLS AND THIOPHENOLS USEFUL AS ANTIOXIDANT AGENTS” (Aventis Pharmaceuticals Inc., priority 1996, dated 1998)
Read-outs that look alike come from different tables or passages of the source.

Legend:
Male Sprague-Dawley Rats = experiment: Serum clinical chemistries in rats fed compound as dietary admixture; assay type: in vivo; conditions: % of control, diet 0.3%, 4 days, N = 5; for ALT: alanine aminotransferase in rat serum; for ALP: alkaline phosphatase in rat serum; for AST: aspartate aminotransferase in rat serum; for GLUC: glucose in rat serum; for response vs control in vivo at 0.3 % in diet: feed or water, 96 h
From the text: (§1) A typical experiment consists of 4-6 groups of rats (N = 5 per group) with I group being a control which receives no MDL compound and the other groups being treated with 0.3% MDL compound. Some of the compounds are either repeated at 0.3% or evaluated again at the lower dose of 0.1%. House Male Sprague-Dawley rats, 50-100 g, (Harlan Laboratories, Indianapolis, IN) in groups of 5, feeding ad libitum water and Purina Rodent chow (#5002) with or without MDL compound as a dietary admixture for 4 days. Make dietary admixtures (0.3%) by mixing 1.2 grams of an MDL compound with 400 grams of Purina rodent chow (#5002). Mix the MDL compound with approximately 50 grams of food using a mortar and pestle. This is added to the remainder of the food and mixed for 3 hours on a rotary mixer. In the morning of day 5, anesthetize non-fasted rats with carbon dioxide, and collect blood by cardiac puncture. Sacrifice rats by cervical dislocation. Record body weights and liver weights in grams. Record food consumption as grams • day^-1 • rat^-1. Deaths are recorded as mortality. Use aliquots of fresh serum for clinical chemistries, thiobarbituric acid reactive substances (TBARS) and conjugated diene measurements. Freeze aliquots of serum (∼ 0.5mL) and whole livers at -20°C for compound and metabolite concentration determination at a later time.
Allow blood to clot at room temperature for 30 minutes. Obtain serum after centrifugation for 10 min at 4°C at 3000 rpm in a Beckman J-6M/E centrifuge with a JS-4.2 rotor. Analyze fresh serum by a COBAS MIRA S autoanalyzer (Roche Diagnostics) using Roche diagnostic reagents for the following clinical chemistry measurements: alkaline phosphatase (ALP, kit # 44553), alanine transaminase (ALT, kit # 42375), aspartate aminotransferase (AST, kit # 42381), total cholesterol (CHOL, kit # 44334), triglyceride (TG, kit # 44120), and glucose (GLU, kit # 44558). Calculate ALP, ALT, and AST as units/L. Calculate cholesterol, triglycerides, and glucose as mg/dL.

oxidation of lipids = experiment: Conjugated diene lag phase determination on pooled serum of treated rats; assay type: in vivo, Male Sprague-Dawley rats; conditions: not normalized, mean of 2 determinations of pooled rat serum (N = 5), diet 0.3%, 4 days
From the text: as §1
Conjugated diene lag phase is another indicator of the oxidation of lipids. Lipids exposed to Cu^++ form conjugated dienes that absorb ultraviolet light in the range of 230 to 235 nm. The lag phase of diene formation gives an indication of the amount of oxidation of the lipids. A lag phase longer than control samples indicate inhibition of the oxidation. Determine conjugated diene lay phase using a Varian DMS200 spectrophotometer (fitted with a constant temperature, 5 cuvette sample changer) at 30°C. Add twenty (20) µL of pooled serum to cuvettes containing 3.0mL phosphate buffered saline, pH 7.5, and mix. Measure the absorbances of all cuvettes and set the instrument baseline to zero using the lowest absorbing sample. Next, add 100µL of 1 mmol CuSO4 and mix immediately. Record the absorbance of each cuvette at 2 min intervals for a period of 840 min. Capture the data and transfer to a Microsoft EXCEL® spreadsheet where the curves are smoothed and differentials obtained. Determine lag times mathematically as minutes. Pool serum samples (N = 5); data presented are the mean values of 2 determinations. Compare serum samples from treated rats to serum samples from control rats that received no MDL compound.

[1] = system: oxidation of serum lipids; experiment: TBARS assay on serum of treated rats (CuSO4-initiated oxidation); assay type: in vivo, Male Sprague-Dawley rats; conditions: % of control; thiobarbituric acid reactive substances as nmoles MDA, rat serum; diet 0.3%, 4 days; N = 5
From the text: as §1
In this assay the oxidation of serum lipids is initiated with CuSO4, resulting in the formation of aldehydes, such as malondialdehyde (MDA). Upon incubation with thiobarbituric acid, the absorbance of the aldehydes can be detected at 530-540 nm. As stated in the previous example, TBARS values which are lower than control serum values indicate the relative ability of a test compound to inhibit the oxidation of lipids in a sample. Measure TBARS as follows: mix 100µL of serum with 400µL of a 5mmol CuSO4 solution and incubate at 37°C for 3 hr. Stop the reactions by addition of 1.0mL of 20% trichloroacetic acid. Then add 1.0mL of 0.67% thiobarbituric acid in 0.05 N sodium hydroxide, mix, and incubate the samples for 30 min at 90°C. Centrifuge samples briefly to pellet undissolved material, and transfer the supernatants to a 96-well microtiter plate. Measure absorbances at 540 nm using a Biotek model EL311 microplate reader. The nmoles of MDA produced are calculated from a standard curve of 0 to 10 nmoles of MDA prepared from malonaldehyde bis(dimethylacetal). Serum samples from treated rats are compared to serum samples from control rats that received no MDL compound.

[2] = HPLC quantitation of compound and metabolite concentration in rat serum and liver; assay type: in vivo; conditions: male, Sprague-Dawley, oral, 0.3 % in chow, diet 0.3%, 4 days, mean N = 5
From the text: as §1
Determine serum and liver concentrations of parent compound and the metabolites, bisphenol and diphenoquinone, by reverse phase HPLC using a Waters 990 Powerline system. Homegenize livers (1 gram samples) with 5.0mL PBS, pH 7.4, using a Polytron tissue homogenizer at setting 5 for 20-30 seconds. Extract serum or liver homogenates as follows: add 100µL of either serum or homogenate to 2.0mL diethyl ether: ethanol (3:1) while vortexing the tube. Cap the sample tubes and centrifuge for 10 min at 5°C at 3500 rpm in a Beckman GPKR centrifuge with a GH 3.7 rotor. Transfer the supernatants to clean tubes and dry under N2. Reconstitute samples with 200µL of acetonitrile : hexane : 0.1 M ammonium acetate (90: 6.5 : 3.5, by vol.). Then, inject 100µL onto a Waters Deltapak C18-300 Å column, and elute with an 83% acetonitrile : 17% water mobile phase at a flow rate of 1.5mL/min. Record absorbances at the wavelengths of 240, 254, and 420nm. Calculate compound concentrations from known quantities of authentic parent compounds after correction for recovery. […]. Calculate concentrations as µg/mL of serum and µg/g of liver.

[3] = Animal parameters (food, body weight, liver weight/body weight, mortality) in rats; assay type: in vivo; conditions: 4 days; for food / lw/bw / body wt.: % of control, diet 0.3%, N = 5; for food: grams eaten per day per rat; for lw/bw: liver weight/body weight; for lw/bw / body wt. / mortality: rat; for body wt.: weight in grams; for mortality: male, Sprague-Dawley, in vivo
From the text: as §1

[4] = total cholesterol in rat serum, read-out: CHOL
[5] = triglycerides in rat serum, read-out: TRIG
[6] = parent compound concentration in rat liver, read-out: Liver Parent
[7] = parent compound concentration in rat serum, read-out: Serum Parent

CC(C)=CCC[C@H](C)CCOc1ccc(O)c(C(C)(C)C)c1 (stereo in doubt) [MDL 103,649, Phenol, 2-(1,1-dimethylethyl)-4-[(3,7-dimethyl-6-octenyl)oxy]-, (S)-]
ALT (Male Sprague-Dawley Rats): 119% | ALP (Male Sprague-Dawley Rats): 74% | AST (Male Sprague-Dawley Rats): 82% | GLUC (Male Sprague-Dawley Rats): 101% | response vs control in vivo at 0.3 % in diet (Male Sprague-Dawley Rats; [4]): 89% | response vs control in vivo at 0.3 % in diet (Male Sprague-Dawley Rats; [5]): 143% | CONJ. DIENE (oxidation of lipids): 375 min | TBARS [1]: 29% | concentration at 5 day [2, 6]: 0 ng/g | concentration at 5 day [2, 7]: 1400 ng/mL | food [3]: 95% | lw/bw [3]: 111% | body wt. [3]: 94% | mortality [3]: 0%

CC(C)=CCC[C@H](C)CCSc1ccc(O)c(C(C)(C)C)c1 [MDL 103,714, Phenol, 2-(1,1-dimethylethyl)-4-[(3,7-dimethyl-6-octenyl)thio]-, (S)-]
ALT (Male Sprague-Dawley Rats): 120% | ALP (Male Sprague-Dawley Rats): 111% | AST (Male Sprague-Dawley Rats): 104% | GLUC (Male Sprague-Dawley Rats): 95% | response vs control in vivo at 0.3 % in diet (Male Sprague-Dawley Rats; [4]): 90% | response vs control in vivo at 0.3 % in diet (Male Sprague-Dawley Rats; [5]): 122% | TBARS [1]: 21% | concentration at 5 day [2, 6]: 0 ng/g | concentration at 5 day [2, 7]: 2700 ng/mL | food [3]: 102% | lw/bw [3]: 121% | body wt. [3]: 103% | mortality [3]: 0%

CC(C)CCCC(C)CCOc1cc(C(C)(C)C)c(O)c(C(C)(C)C)c1 (stereo not shown) [MDL 104,102, Phenol, 2,6-bis(1,1-dimethylethyl)-4-[(3,7-dimethyloctyl)oxy]-]
ALT (Male Sprague-Dawley Rats): 114% | ALP (Male Sprague-Dawley Rats): 101% | AST (Male Sprague-Dawley Rats): 82% | GLUC (Male Sprague-Dawley Rats): 98% | response vs control in vivo at 0.3 % in diet (Male Sprague-Dawley Rats; [4]): 100% | response vs control in vivo at 0.3 % in diet (Male Sprague-Dawley Rats; [5]): 127% | CONJ. DIENE (oxidation of lipids): 229 min | TBARS [1]: 71% | concentration at 5 day [2, 6]: 481000 ng/g | concentration at 5 day [2, 7]: 32800 ng/mL | food [3]: 92% | lw/bw [3]: 121% | body wt. [3]: 97% | mortality [3]: 0%

CC(CCCC(C)(C)O)CCSc1cc(C(C)(C)C)c(O)c(C(C)(C)C)c1 (stereo not shown) [MDL 104,487, Phenol, 2,6-bis(1,1-dimethylethyl)-4-[(7-hydroxy-3,7-dimethyloctyl)thio]-]
ALT (Male Sprague-Dawley Rats): 129% | ALP (Male Sprague-Dawley Rats): 137% | AST (Male Sprague-Dawley Rats): 124% | GLUC (Male Sprague-Dawley Rats): 92% | response vs control in vivo at 0.3 % in diet (Male Sprague-Dawley Rats; [4]): 127% | response vs control in vivo at 0.3 % in diet (Male Sprague-Dawley Rats; [5]): 108% | TBARS [1]: 87% | concentration at 5 day [2, 6]: 3800 ng/g | concentration at 5 day [2, 7]: 4100 ng/mL | food [3]: 90% | lw/bw [3]: 150% | body wt. [3]: 95% | mortality [3]: 0%

CC(C)=CCCC(C)CCOc1ccc(O)c(C(C)(C)C)c1 (stereo not shown) [MDL 105,411, Phenol, 2-(1,1-dimethylethyl)-4-[(3,7-dimethyl-6-octenyl)oxy]-]
ALT (Male Sprague-Dawley Rats): 122% | ALP (Male Sprague-Dawley Rats): 76% | AST (Male Sprague-Dawley Rats): 87% | GLUC (Male Sprague-Dawley Rats): 96% | response vs control in vivo at 0.3 % in diet (Male Sprague-Dawley Rats; [4]): 105% | response vs control in vivo at 0.3 % in diet (Male Sprague-Dawley Rats; [5]): 100% | CONJ. DIENE (oxidation of lipids): 400 min | TBARS [1]: 29% | concentration at 5 day [2, 6]: 0 ng/g | concentration at 5 day [2, 7]: 1100 ng/mL | food [3]: 95% | lw/bw [3]: 114% | body wt. [3]: 101% | mortality [3]: 0%

CC(C)=CCC[C@H](C)CCOc1cc(C(C)(C)C)c(O)cc1C(C)(C)C [MDL 107,059, Phenol, 2,5-bis(1,1-dimethylethyl)-4-[(3,7-dimethyl-6-octenyl)oxy]-, (S)-]
ALT (Male Sprague-Dawley Rats): 116% | ALP (Male Sprague-Dawley Rats): 118% | AST (Male Sprague-Dawley Rats): 140% | GLUC (Male Sprague-Dawley Rats): 96% | response vs control in vivo at 0.3 % in diet (Male Sprague-Dawley Rats; [4]): 89% | response vs control in vivo at 0.3 % in diet (Male Sprague-Dawley Rats; [5]): 35% | CONJ. DIENE (oxidation of lipids): 201 min | TBARS [1]: 78% | concentration at 5 day [2, 6]: 0 ng/g | concentration at 5 day [2, 7]: 0 ng/mL | food [3]: 95% | lw/bw [3]: 107% | body wt. [3]: 95% | mortality [3]: 0%
